Test results as given in paper PMC4105567, “Aurora Kinases as Druggable Targets in Pediatric Leukemia: Heterogeneity in Target Modulation Activities and Cytotoxicity by Diverse Novel Therapeutic Agents” (PLoS ONE, 2014).

What was measured:
Assay type in all cases: cell-based, human
[1] = system: normal bone marrow derived CD34+ cells; experiment: Hematopoietic colony forming cell assay; details: myeloid and erythroid colonies from CD34+ cells; for colony formation at 0.1–10 µM: 14 days
Description: The hematopoietic colony forming cell assay was conducted based on a protocol outlined by StemCell Technologies (Vancouver, British Columbia, Canada). To begin, CD34^+ cells were isolated from residual normal bone marrow transplant specimens obtained after informed consent. Next, several concentrations of Aurora A Inhibitor I, Hesperadin, ZM447439 and AT9283 (0.01, 0.1, 1, 10 µM) and DMSO (Sigma-Aldrich, Oakville, Ontario) (10 µM) were added to separate tubes of MethoCult (StemCell Technologies), a methylcellulose matrix containing recombinant human cytokines stem cell factor (rh SCF), granulocyte macrophage colony-stimulating factor (rh GM-CSF), interleukin-3 (rh IL-3), granulocyte colony stimulating factor (rh G-CSF) and erythropoietin (rh EPO). Following the addition of CD34^+ cells at a final concentration of 5×10^3 cells per dish, the tubes were vortexed and allowed to stand for 5 minutes at room temperature. Next, the MethoCult mixtures were be dispensed into 35 mm dishes (Corning Incorporated, Corning, New York) through blunt end needles (StemCell Technologies) and 5 ml syringes (BD Biosciences, Mississauga, Ontario) at a volume of 1.1 ml per dish. The medium was evenly distributed across the surface of each dish by gentle tilting and rotation. The dishes were then placed in a 150 mm tissue culture dish (BD Biosciences) containing additional 35 mm dishes with sterile water to maintain humidity. The tissue culture dish was then placed at 37°C in a humidified incubator containing 5% CO2 for 14 days. The number of myeloid and erythroid derived colonies in both the treated and control dishes were counted and compared.

[2] = system: TIB-202 AML cell line; experiment: Cytotoxicity assay, TIB-202; details: AML cell line TIB-202, four days in culture, Alamar blue assay or automated microscopy, ± SD, three experiments
Description: (§1) Cell lines were cultured in Opti-MEM medium (Gibco, Life Technologies Corporation, Burlington, Ontario) supplemented with 10% heat inactivated fetal bovine serum (FBS) (Gibco), 100 units/ml penicillin and 100 units/ml streptomycin (Gibco) and 0.05 mM 2-mercaptoethanol (Sigma-Aldrich, Oakville, Ontario) in T25 flasks (Nalge Nunc, Rochester, New York) or T75 flasks (Corning Incorporated, Corning, New York). All cell cultures were maintained at 37°C in a humidified incubator with 5% CO2.
(§2) For cytotoxicity profiling of Aurora kinase inhibitors against leukemia cell lines, inhibitors or vehicle control (DMSO, Sigma-Aldrich) were diluted in 100 µl of Opti-MEM per well in 96 well plates (Grenier Bio-One, Monroe, North Carolina) in triplicate at final concentrations ranging from 1×10^−6 to 10 µM. 1×10^4 cells per well were seeded and plates were incubated for 4 days. Following incubation for 4 days, cell survival was quantified by Alamar blue assay (Invitrogen) or automated inverted microscopy using the Celigo Cell Cytometer (Cyntellect, San Diego, California). […] During this period of incubation, the absorbance at 570–620 nm was measured (Opsys MR Plate Reader, Dynex Technologies, Chantilly, Virginia) at various time points, depending on the cell line or sample. Percent survival was calculated by comparing the absorbance ratio of the test well to the control well multiplied by 100%, as indicated in the following formula: […]
(§3) For automated inverted microscopy, the number of cells in each well was determined using the direct cell counting application as described previously. Briefly, following adjustment of image acquisition settings for bright-field imaging, the wells containing cells and appropriate dilutions of inhibitors were individually scanned. Based on these images, analysis parameters, including intensity threshold and cell diameter, were modified for optimal inclusion of viable cells in treated and control wells. These parameters were applied for subsequent replicates involving the same leukemia cell line or sample. The percent survival was then calculated as a ratio of the number of cells in treated wells to the number of cells in control wells multiplied by 100%. Given that Aurora kinase inhibitors interfere with cytokinesis, cells that are committed to death may still contain enlarging but intact cytoplasmic content before the eventual loss of cytoplasmic membrane integrity. The accuracy of Alamar blue assay may be, in theory, affected by the timing of these events.

[3] = system: Molm13 AML cell line; experiment: Cytotoxicity assay, Molm13; details: four days in culture, Alamar blue assay or automated microscopy, ± SD, three experiments
Description: as §1, §2, §3

[4] = system: Patient #3 AML/CML primary leukemia cells; experiment: Cytotoxicity assay, primary sample Patient #3; details: four days in culture, Alamar blue assay or automated microscopy, one complete study
Description: (§4) These include B-ALL (Patient #1), relapsed AML (Patient #2), AML/CML (Patient #3), infant ALL (Patient #4), and initial ALL presenting with secondary AML (Patient #5). […] The diluted sample was then layered on a Ficoll-Paque (GE Healthcare, Piscataway, New Jersey) gradient at a 1∶2 ratio of Ficoll to diluted sample. Samples were then centrifuged 1800 rpm for 20 minutes at room temperature. The buffy coat was removed with a pipette and transferred to a new centrifuge tube and diluted with PBS. After an additional centrifugation at 1200 rpm, the white blood cell pellet was washed with PBS and centrifuged one last time. Cells were re-suspended in Opti-MEM and viable cells were counted using trypan blue (Invitrogen, Life Technologies Corporation, Burlington, Ontario) exclusion on a haemocytometer. An identical protocol was followed for the isolation of white blood cells, referred to as “normal lymphocytes” in the following paragraphs, from healthy volunteers. Samples grown in culture for up to six months were cultured in Opti-MEM medium supplemented with 10% heat inactivated FBS, penicillin/streptomycin and 2-mercaptoethanol.
as §2, §3

[5] = system: Nalm6 B-ALL cell line; experiment: Cytotoxicity assay, Nalm6; details: four days in culture, Alamar blue assay or automated microscopy, ± SD, three experiments
Description: as §1, §2, §3

[6] = system: Patient #1 B-ALL primary leukemia cells; experiment: Cytotoxicity assay, primary sample Patient #1; details: four days in culture, Alamar blue assay or automated microscopy, one complete study
Description: as §4, §2, §3

Compound | colony formation at 0.1–10 µM [1] | IC50 ([2]; Homo sapiens, 96 h) [nM] | IC50 ([3]; Homo sapiens, MOLM-13, 96 h) [nM] | IC50 ([4]; Homo sapiens, 96 h) [nM] | IC50 ([5]; Homo sapiens, NALM-6, 96 h) [nM] | IC50 ([6]; Homo sapiens, 96 h) [nM] | concentration up to which colony formation was not affected ([1]; 14 days in methylcellulose culture, tested 0.01, 0.1, 1, 10 µM) [nM] | IC50 [2] [nM] | IC50 [3] [nM] | IC50 [4] [nM] | IC50 [5] [nM] | IC50 [6] [nM]
O=C(Nc1c[nH]nc1-c1nc2ccc(CN3CCOCC3)cc2[nH]1)NC1CC1 [AT9283] | completely inhibited the formation of both types of colonies | 800 ± 200 | 5 ± 3 | 1000 | 6 ± 3 | 3 | – | – | – | – | – | –
CCN1CCN(C(=O)Cc2ccc(Nc3ncc(F)c(Nc4ccc(C(=O)Nc5ccccc5Cl)cc4)n3)cc2)CC1 [Aurora A Inhibitor I] | – | – | – | – | – | – | ≤ 100 | 5 ± 2 | 2000 ± 1000 | 5000 | 400 ± 80 | 800
CCS(=O)(=O)Nc1ccc2c(c1)/C(=C(/Nc1ccc(CN3CCCCC3)cc1)c1ccccc1)C(=O)N2 [Hesperadin] | completely inhibited the formation of both types of colonies | 0.003 | 0.3 | 3000 | 0.004 | 0.04 | – | – | – | – | – | –
